For one assay, the system named is Eg5. The settings on record: experimental binding free energy, ref Schrödinger FEP+ benchmark; cited from earlier work.
In assay [1] the test system is SYK. The settings on record: experimental binding free energy, ref Schrödinger FEP+ benchmark; cited from earlier work.
The subject of assay [2] is c-Met. On the set-up: method as in earlier work. The settings on record: Schrödinger FEP+ benchmark; cited from earlier work.
In another assay the target is T1, SHP2^PTP (237–529) (Homo sapiens, UniProt Q06124).
T1 construct: made in house; host or cells: E. coli BL21 Star (DE3), pET30 vector
T1 sequence (Q06124 237-529): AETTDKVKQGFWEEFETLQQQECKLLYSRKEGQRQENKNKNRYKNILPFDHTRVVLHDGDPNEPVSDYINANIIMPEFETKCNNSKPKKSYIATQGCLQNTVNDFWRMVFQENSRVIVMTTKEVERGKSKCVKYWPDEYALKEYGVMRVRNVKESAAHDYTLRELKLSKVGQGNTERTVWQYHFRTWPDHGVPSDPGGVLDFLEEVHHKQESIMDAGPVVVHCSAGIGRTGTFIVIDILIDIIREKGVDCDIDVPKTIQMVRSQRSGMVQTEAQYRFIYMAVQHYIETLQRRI
Kind of assay: SHP-2 prompt fluorescence phosphatase assay (DiFMUP), SHP2^PTP. Format: biochemical. The settings on record: catalytic PTP domain construct. The method, then: (§1) Briefly, the constructs were transformed into BL21 Star^TM (DE3) cells and cultured at 37 °C for 3~4 h. Subsequently, the cells with high expression of SHP2 protein were harvested after being induced by IPTG and grown overnight at 18 °C. Cell pellets were resuspended in lysis buffer (25 mM imidazole, 50 mM Tris−HCl, 500 mM NaCl, 2.5 mM MgCl2, 1 mM tris(2-carboxyethyl)phosphine (TCEP), 1 μg/mL DNase1, and complete EDTA-free protease inhibitor) and lysed using Low Temperature Ultrahigh Pressure Continuous Flow Cell Disrupter (JNBIO), followed by ultracentrifugation. The supernatant was collected. Then, the SHP2 was purified from the collected supernatant by using HisTrap HP chelation column, TEV protease, and HiTrap Q FastFlow column.
(§2) Then, the mixture was then incubated at 25 °C for 60 min. To initiate the reaction, the surrogate substrate DiFMUP (Invitrogen, cat. no. D6567, Shuzhou, China, 200 μM) was added and incubated at 25 °C for another 30 min. […] Fluorescence signal was detected using a microplate reader (Bio-Tek, Shanghai, China, Synergy2) at Ex/Em = 340/450 nm. Using control-based normalization, normalized IC50 regression curves were fitted to inhibitor dose response curves.

Assay [3] relates to c-Met. On the set-up: method as in earlier work. The settings on record: FEP+ predicted ΔG from the benchmark; cited from earlier work.
A further assay relates to HIF-2α. Conditions: experimental binding free energy, ref Schrödinger FEP+ benchmark; cited from earlier work.
The target in the next assay is T2, SHP2^WT (1–593) (Homo sapiens, UniProt Q06124).
T2 construct: made in house; host or cells: E. coli BL21 Star (DE3), pET30 vector
T2 sequence (Q06124 1-593): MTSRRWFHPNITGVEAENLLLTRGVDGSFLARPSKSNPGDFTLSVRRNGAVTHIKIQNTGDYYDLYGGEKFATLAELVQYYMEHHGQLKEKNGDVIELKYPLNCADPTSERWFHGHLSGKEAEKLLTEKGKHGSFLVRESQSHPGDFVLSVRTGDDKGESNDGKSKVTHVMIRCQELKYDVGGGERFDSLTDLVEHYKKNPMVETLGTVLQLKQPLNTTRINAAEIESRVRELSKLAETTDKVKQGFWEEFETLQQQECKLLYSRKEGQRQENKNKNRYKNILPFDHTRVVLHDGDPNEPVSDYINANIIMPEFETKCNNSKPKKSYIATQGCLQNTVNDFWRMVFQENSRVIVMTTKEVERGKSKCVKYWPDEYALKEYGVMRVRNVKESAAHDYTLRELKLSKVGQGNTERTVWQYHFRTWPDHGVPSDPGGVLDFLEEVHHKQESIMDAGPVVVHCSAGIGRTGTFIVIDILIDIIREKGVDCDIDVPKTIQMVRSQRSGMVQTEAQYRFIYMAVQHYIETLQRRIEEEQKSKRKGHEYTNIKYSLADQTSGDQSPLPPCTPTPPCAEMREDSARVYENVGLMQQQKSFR
Description: SHP-2 prompt fluorescence phosphatase assay (DiFMUP), SHP2^WT. Format: biochemical. Conditions: for inhibitory activity against SHP-2 (in words): Figure S4, DIFMUP substrate, mean ± SD (n = 3); for IC50: SHP2^WT, DiFMUP substrate, averages of three independent experiments, read-out: SHP-2 IC50; for ΔGexp: converted from IC50 with ΔGexp ≈ kBTlog IC50. The method, then: as §1, §2

In the next assay the test system is THR-β. Description: Experimental THR-β activity of agonists taken from Hu et al. The settings on record: Table S4, converted from the experimental value. Format: biochemical.
The subject of assay [4] is SYK. On the set-up: method as in Schrödinger FEP+ benchmark. The settings on record: FEP+ predicted binding free energy, ref Schrödinger FEP+ benchmark; cited from earlier work.
In a further assay the test system is SHP-2. The settings on record: SHP-2 ligand set; experimental binding free energy; ref Schrödinger FEP+ benchmark; cited from earlier work.

Structures are written as SMILES.

Description for THR-β: In the initial phase of our investigation, we conducted a retrospective evaluation of FMOScore’s performance concerning thyroid hormone receptor β (THR-β) agonists, using a set of 18 compounds taken from the work of Hu et al. [65]

Turning to `CNCCS(=O)(=O)NC[C@H]1CC[C@@H]2[C@H](O1)c1cc(C(F)(F)F)ccc1N[C@H]2c1ccccc1` [CHEMBL1084677], in the assay on Eg5, the “Exp. ΔG” value is reported as -11.46 kcal/mol.
In the case of `CN(C[C@H]1CC[C@@H]2[C@H](O1)c1cc(C(F)(F)F)ccc1N[C@H]2c1ccccc1)S(=O)(=O)CCCN` [CHEMBL1084678], in the assay on Eg5, the “Exp. ΔG” value was -11.13 kcal/mol.
Turning to `CCN(CCO)C[C@H]1CC[C@@H]2[C@H](O1)c1cc(C(C)(C)C)ccc1N[C@H]2c1ccccc1` [CHEMBL1084935], in the assay on Eg5, the “Exp. ΔG” value is given as -10.53 kcal/mol.
As to `NC[C@H]1CC[C@@H]2[C@H](O1)c1cc(C(F)(F)F)ccc1N[C@H]2c1ccccc1` [CHEMBL1085666], in the assay with Eg5, the “Exp. ΔG” value is reported as -10.5 kcal/mol.
In the case of `CN(C)CCCC(=O)NC[C@H]1CC[C@@H]2[C@H](O1)c1cc(Br)cc(F)c1N[C@H]2c1ccccc1` [CHEMBL1085692], the “Exp. ΔG” value in the assay with Eg5 was -11.32 kcal/mol.
With `CNC[C@H]1CC[C@@H]2[C@H](O1)c1cc(C(F)(F)F)ccc1N[C@H]2c1ccc(F)cc1` [CHEMBL1086409], the “Exp. ΔG” value in the assay with Eg5 is recorded as -9.87 kcal/mol.
Turning to `CNC[C@H]1CC[C@@H]2[C@H](O1)c1cc(C(C)(C)C)ccc1N[C@H]2c1ccccc1` [CHEMBL1086410], the “Exp. ΔG” value in the assay on Eg5 is on record as -11.46 kcal/mol.
In the case of `Cc1ccc2c(c1)[C@H]1OCCC[C@H]1[C@H](c1ccccc1)N2` [CHEMBL1088740], the “Exp. ΔG” value in the assay with Eg5 was -8.7 kcal/mol.
As to `CC(C)(C)c1ccc2c(c1)[C@H]1OCCC[C@H]1[C@H](c1ccccc1)N2` [CHEMBL1089056], the “Exp. ΔG” value in the assay on Eg5 was -9.44 kcal/mol.
On to `Clc1ccc2c(c1)[C@H]1OCCC[C@H]1[C@H](c1ccccc1)N2` [CHEMBL1089393], for which the “Exp. ΔG” value in the assay with Eg5 is recorded as -8.38 kcal/mol.
Turning to `NCCN(C[C@H]1CC[C@@H]2[C@H](O1)c1cc(C(F)(F)F)ccc1N[C@H]2c1ccccc1)c1ccccc1` [CHEMBL1093087], the “Exp. ΔG” value with Eg5 is recorded as -10.53 kcal/mol.
With `FC(F)(F)c1ccc2c(c1)[C@H]1O[C@@H](Cn3cncn3)CC[C@H]1[C@H](c1ccccc1)N2` [CHEMBL1093088], the “Exp. ΔG” value in the assay with Eg5 is reported as -11.22 kcal/mol.
On to `OCCNC[C@H]1CC[C@@H]2[C@H](O1)c1cc(Cl)cc(F)c1N[C@H]2c1ccccc1` [CHEMBL1096002], for which, in the assay on Eg5, the “Exp. ΔG” value is recorded as -11.13 kcal/mol.
Consider `CN(C)CCS(=O)(=O)NC[C@H]1CC[C@@H]2[C@H](O1)c1cc(Cl)cc(F)c1N[C@H]2c1ccccc1` [CHEMBL1096003], for which the “Exp. ΔG” value in the assay on Eg5 is given as -11.87 kcal/mol.
As to `CC1(N)CCN(c2cnc(-c3cccc(Cl)c3Cl)c(N)c2)CC1` [Compound 1, 5-(4-amino-4-methylpiperidin-1-yl)-2-(2,3-dichlorophenyl) pyridin-3-amine], the “Exp. ΔG” value with SYK [1] is on record as -12.39 kcal/mol; in the assay on c-Met [2], -9.14 kcal/mol; with HIF-2α, -11.32 kcal/mol. Further, the IC50 on SHP2^PTP (237–529) was greater than 100 µM; at SHP2^WT (1–593), 1.49 ± 0.024 µM. Moreover, the figures for the FEP in the assay on c-Met [3] and in the assay with SYK [4] were -9.88 kcal/mol and -12.21 kcal/mol, respectively. Moreover, on SHP2^WT (1–593), the “inhibitory activity against SHP-2 (in words)” value is reported as “potent inhibitory activity”. Also, the ΔGexp is -7.943 kcal/mol on SHP2^WT (1–593) and -8.186 kcal/mol in the assay with THR-β. Besides, the “fold decrease of biochemical inhibition compared to SHP099” value on SHP2^WT (1–593) (ratio of IC50) is listed as 16 fold.
`Nc1cc(NCC2CCCNC2)cnc1-c1cccc(Cl)c1Cl` (stereo not drawn) [Compound 2, 2-(2,3-dichlorophenyl)-N5-(piperidin-3-ylmethyl) pyridine-3,5-diamine]: the “Exp. ΔG” value in the assay on SYK [1] is -11.01 kcal/mol; in the assay with c-Met [2] it was -11.25 kcal/mol. Besides, the FEP with c-Met [3] is given as -11.93 kcal/mol; in the assay with SYK [4] it was -10.49 kcal/mol. In addition, the IC50 on SHP2^WT (1–593) was found to be 15.6 ± 1.49 µM. Besides, the figures for the ΔGexp on SHP2^WT (1–593) and with THR-β were -6.553 kcal/mol and -6.110 kcal/mol, respectively. In addition, the “fold reduced inhibition on morphing the piperazine ring (relative to compound 1)” value on SHP2^WT (1–593) (ratio of IC50) is 10 fold.
In the case of `Nc1cc(NC2CCNC2)cnc1-c1cccc(Cl)c1Cl` (stereo not drawn) [Compound 3, 2-(2,3-dichlorophenyl)-N5-(pyrrolidin-3-yl) pyridine-3,5-diamine], the “Exp. ΔG” value with SYK [1] was -8.64 kcal/mol; in the assay on c-Met [2], -7.46 kcal/mol. The FEP in the assay with c-Met [3] is reported as -5.97 kcal/mol; in the assay with SYK [4], -6.76 kcal/mol. The IC50 on SHP2^WT (1–593) turned out to be 5.17 ± 1.08 µM. In addition, the ΔGexp at SHP2^WT (1–593) was -7.207 kcal/mol; in the assay with THR-β, -8.435 kcal/mol.
In the case of `Nc1cc(NC2CCNCC2)cnc1-c1cccc(Cl)c1Cl` [Compound 4, 2-(2,3-dichlorophenyl)-N5-(piperidin-4-yl) pyridine-3,5-diamine], the entries for the “Exp. ΔG” value with SYK [1] and in the assay with c-Met [2] were -11.36 kcal/mol and -8.9 kcal/mol, respectively. Besides, the figures for the FEP in the assay with c-Met [3] and with SYK [4] were -7.41 kcal/mol and -9.49 kcal/mol, respectively. For the same molecule, the IC50 at SHP2^WT (1–593) amounted to 23.5 ± 2.86 µM. Besides, the ΔGexp on SHP2^WT (1–593) was -6.311 kcal/mol; in the assay on THR-β it was -5.453 kcal/mol. In addition, at SHP2^WT (1–593) (ratio of IC50), the “fold reduced inhibition on morphing the piperazine ring (relative to compound 1)” value is listed as 15 fold.
`CC1(N)CCN(c2cnc(-c3cccc(F)c3Cl)c(N)c2)CC1` [Compound 5, 5-(4-amino-4-methylpiperidin-1-yl)-2-(2-chloro-3-fluorophenyl) pyridin-3-amine]: in the assay on c-Met [2], the “Exp. ΔG” value is on record as -9.14 kcal/mol. For the same molecule, the FEP with c-Met [3] is on record as -8.31 kcal/mol. At SHP2^WT (1–593), the IC50 came out at 15.1 ± 0.8 µM and the ΔGexp is -6.573 kcal/mol. Also, the ΔGexp in the assay with THR-β was -5.453 kcal/mol.
Consider `CC1(N)CCN(c2cnc(-c3ccnc(Cl)c3Cl)c(N)c2)CC1` [Compound 6, 5-(4-amino-4-methylpiperidin-1-yl)-2′,3′-dichloro-[2,4′-bipyridin]-3-amine], for which the “Exp. ΔG” value in the assay with SYK [1] was -11.69 kcal/mol; with c-Met [2], -12.28 kcal/mol. The values for the FEP in the assay on c-Met [3] and with SYK [4] were -12.22 kcal/mol and -9.59 kcal/mol, respectively. In addition, the concentration for half-maximal inhibition (IC50) on SHP2^WT (1–593) turned out to be 10.7 ± 0.92 µM. For the same molecule, the results for the ΔGexp on SHP2^WT (1–593) and in the assay on THR-β were -6.780 kcal/mol and -10.257 kcal/mol, respectively.
`Nc1cc(N2CCC3(CCCC3N)CC2)cnc1Sc1cccc(Cl)c1Cl` (stereo not drawn) [Compound 8, 8-(5-amino-6-((2,3-dichlorophenyl)thio)pyridin-3-yl)-8-azaspiro[4.5]decan-1-amine]: the “Exp. ΔG” value in the assay with SYK [1] was -9.78 kcal/mol; with c-Met [2], -10.06 kcal/mol. For the same molecule, the FEP in the assay with c-Met [3] is recorded as -9.12 kcal/mol; in the assay with SYK [4], -10.6 kcal/mol. Moreover, the “inhibitory activity against SHP-2 (in words)” value on SHP2^WT (1–593) is “potent inhibitory activity”. Further, on SHP2^WT (1–593), the IC50 is 2.29 ± 0.66 µM. In addition, the ΔGexp on SHP2^WT (1–593) is -7.690 kcal/mol; with THR-β, -8.072 kcal/mol.
Regarding `O=[N+]([O-])c1cc(Br)cnc1Sc1cccc(Cl)c1Cl` [Compound S4], the “Exp. ΔG” value in the assay with SHP-2 was -5.82 kcal/mol.

What is called IC50 is the concentration at which inhibition is half-maximal.

The values above are taken from publication PMC10779950, “Binding Free Energy Calculation Based on the Fragment Molecular Orbital Method and Its Application in Designing Novel SHP-2 Allosteric Inhibitors” (International Journal of Molecular Sciences, 2024).
